Biological target: Recombinant full length human PFKFB3 (Homo sapiens, UniProt Q16875)
Assay: PFKFB3 kinase activity assay (ADP production, ADP-Glo)

Chain of Recombinant full length human PFKFB3 (Q16875 whole entry): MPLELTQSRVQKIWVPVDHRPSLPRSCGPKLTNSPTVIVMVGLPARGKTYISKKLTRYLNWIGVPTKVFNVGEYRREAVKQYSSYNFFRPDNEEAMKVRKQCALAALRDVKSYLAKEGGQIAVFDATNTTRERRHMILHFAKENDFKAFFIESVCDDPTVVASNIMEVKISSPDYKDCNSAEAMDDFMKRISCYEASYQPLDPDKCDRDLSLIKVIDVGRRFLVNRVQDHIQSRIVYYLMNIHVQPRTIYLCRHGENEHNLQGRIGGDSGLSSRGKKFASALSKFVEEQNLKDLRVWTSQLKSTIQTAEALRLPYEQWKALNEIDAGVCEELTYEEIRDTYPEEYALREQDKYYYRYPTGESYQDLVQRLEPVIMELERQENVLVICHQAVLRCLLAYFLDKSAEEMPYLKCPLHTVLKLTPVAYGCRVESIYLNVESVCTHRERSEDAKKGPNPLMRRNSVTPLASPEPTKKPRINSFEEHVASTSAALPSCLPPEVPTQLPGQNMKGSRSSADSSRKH

| SMILES | IC50 [µM] |
| --- | --- |
| COc1ccc(-c2c(C)sc(N3C(=O)c4ccc(C(=O)N[C@H](C(=O)O)C(C)C)cc4C3=O)c2C#N)cc1 [Example 19] | 5 to 20 |
| COC(=O)c1ccc(-c2ccc(F)c(F)c2)cc1N1Cc2ccc(CO)cc2C1=O [compound 157, methyl 3′,4′-difluoro-3-(6-(hydroxymethyl)-1-oxoisoindolin-2-yl)biphenyl-4-carboxylate] | < 20 |
| CC(C)(C)OC(=O)c1ccc(-c2ccc(F)c(F)c2)cc1N1Cc2ccc(-c3c[nH]nn3)cc2C1=O [Compound 117, 3′,4′-Difluoro-3-[1-oxo-6-(1H-[1,2,3]triazol-4-yl)-1,3-dihydro-isoindol-2-yl]-biphenyl-4-carboxylic acid tert-butyl ester] | < 20 |
| O=C(Nc1cc(Cl)c(-c2c[nH]nn2)cc1C(=O)O)c1cccc(-c2ccccc2)c1 [Example 18, 2-([1,1′-biphenyl]-3-carboxamido)-4-chloro-5-(1H-1,2,3-triazol-5-yl)benzoic acid] | 5 to 20 |
| COC(=O)c1cc(-c2ccccc2)ccc1N1C(=O)c2ccc(C(=O)NS(C)(=O)=O)cc2C1=O [Example 40] | < 20 |
| COC(=O)c1ccc(-c2ccc(F)c(F)c2)cc1N1Cc2ccc(-c3c[nH]nn3)cc2C1=O [Compound 110, 3′,4′-Difluoro-3-[1-oxo-6-(1H-[1,2,3]triazol-4-yl)-1,3-dihydroisoindol-2-yl]biphenyl-4-carboxylic acid methyl ester] | < 20 |
| CN(C)CCCOC(=O)c1ccc(-c2ccc(F)c(F)c2)cc1N1Cc2ccc(C(=O)NS(C)(=O)=O)cc2C1=O [Compound 124, 3′,4′-Difluoro-3-(6-methanesulfonylaminocarbonyl-1-oxo-1,3-dihydro-isoindol-2-yl)-biphenyl-4-carboxylic acid 3-dimethylamino-propyl ester] | < 20 |
| O=C(O)c1ccc(-c2cccnc2)cc1N1C(=O)c2ccc(-c3c[nH]nn3)cc2C1=O [Example 49] | 2 to 5 |
| CNC(=O)c1cc(CO)ccc1C(=O)Nc1sc(C)c(-c2ccc(OC)cc2)c1C#N [Example 15, N1-[3-cyano-4-(4-methoxyphenyl)-5-methylthiophen-2-yl]-4-(hydroxymethyl)-N2-methylbenzene-1,2-dicarboxamide] | < 20 |
| O=C(NS(=O)(=O)c1ccccc1)c1ccc2c(c1)C(=O)N(c1ccc(-c3ccccc3)cc1-c1nnn[nH]1)C2=O [Compound 135, N-(Benzenesulfonyl)-2-(3-(1H-tetrazol-5-yl)-[1,1′-biphenyl]-4-yl)-1,3-dioxo-2,3-dihydro-1H-isoindole-5-carboxamide] | 5 to 20 |
| O=C(OCCN1CCOCC1)c1ccc(-c2ccccc2)cc1N1C(=O)c2ccc(-c3c[nH]nn3)cc2C1=O [Example 67] | 5 to 20 |
| O=C1c2ccc(-c3c[nH]nn3)cc2C(=O)N1c1cc(-c2ccc(F)cc2)ccn1 [Compound 87, 2-[4-(4-Fluorophenyl)-pyridin-2-yl]-5-(1H-[1,2,3]triazol-4-yl)-isoindole-1,3-dione] | 5 to 20 |
| COC(=O)c1ccc2c(c1)C(=O)N(c1cc(-c3ccc(F)c(F)c3)ccc1C(=O)OC)C2 [Compound 127, 2-(3′,4′-Difluoro-4-methoxycarbonylbiphenyl-3-yl)-3-oxo-2,3-dihydro-1H-isoindole-5-carboxylic acid methyl ester] | < 20 |
| CC(C)OC(=O)c1ccc(-c2ccc(F)c(F)c2)cc1N1Cc2ccc(C(=O)NS(C)(=O)=O)cc2C1=O [Compound 125, 3′,4′-Difluoro-3-(6-methanesulfonylaminocarbonyl-1-oxo-1,3-dihydro-isoindol-2-yl)-biphenyl-4-carboxylic acid isopropyl ester] | < 20 |
| Cc1ccc(S(=O)(=O)Nc2ccc3c(c2)C(=O)N(c2cc(-c4ccc(F)c(F)c4)ccc2C(=O)O)C3)cc1 [Compound 132, 3′,4′-Difluoro-3-[1-oxo-6-(toluene-4-sulfonylamino)-1,3-dihydro-isoindol-2-yl]-biphenyl-4-carboxylic acid] | 5 to 20 |
| CC(C)(C)C(=O)OCn1cc(-c2ccc3c(c2)C(=O)N(c2ccc(-c4ccccc4)cc2C(=O)O)C3=O)nn1 [Example 30] | 2 to 5 |
| COc1ccc(-c2c(C)sc(NC(=O)c3cc(C(=O)O)ccc3C(=O)O)c2C#N)cc1 [Example 29, 2-{[3-cyano-4-(4-methoxyphenyl)-5-methylthiophen-2-yl]carbamoyl}benzene-1,4-dicarboxylic acid] | 5 to 20 |
| COC(=O)c1ccc(-c2ccccc2)cc1N1Cc2ccc(C(=O)NS(C)(=O)=O)cc2C1=O [Compound 103, 3-(6-Methanesulfonylaminocarbonyl-1-oxo-1,3-dihydroisoindol-2-yl)biphenyl-4-carboxylic acid methyl ester] | < 20 |
| NCCOC(=O)c1ccc(-c2ccccc2)cc1N1C(=O)c2ccc(-c3c[nH]nn3)cc2C1=O [Compound 72, 3-[1,3-Dioxo-5-(1H-[1,2,3]triazol-4-yl)-1,3-dihydroisoindol-2-yl]biphenyl-4-carboxylic Acid 2-amino-ethyl ester] | < 20 |

More lines, now with the values ahead:

| IC50 [µM] | SMILES |
| --- | --- |
| 2 to 5 | CN(C)S(=O)(=O)c1cc(-c2cnn[nH]2)c(Cl)cc1C(=O)Nc1cc(-c2ccc(F)c(F)c2)ccc1C(=O)O [Example 26, 3-(5-chloro-2-(N,N-dimethylsulfamoyl)-4-(1H-1,2,3-triazol-5-yl)benzamido)-3′,4′-difluoro-[1,1′-biphenyl]-4-carboxylic acid] |
| 0.5 to 2 | O=C(O)c1ccc(-c2ccc(F)c(F)c2)cc1N1Cc2ccc(-n3cnnn3)cc2C1=O [Compound 122, 3′,4′-Difluoro-3-(1-oxo-6-tetrazol-1-yl-1,3-dihydroisoindol-2-yl)biphenyl-4-carboxylic Acid] |
| 2 to 5 | CS(=O)(=O)NC(=O)c1ccc2c(c1)C(=O)N(c1cc(-c3ccc(F)c(F)c3)ccc1C(=O)O)C2 [Compound 106, 3′,4′-Difluoro-3-(6-methanesulfonylaminocarbonyl-1-oxo-1,3-dihydroisoindol-2-yl)biphenyl-4-carboxylic Acid] |
| < 0.5 | O=C(O)c1cc(C(=O)O)c(C(=O)Nc2cc(-c3ccc(F)c(F)c3)ccc2C(=O)O)cc1Cl [Example 45, 4-({4-carboxy-3′,4′-difluoro-[1,1′-biphenyl]-3-yl}carbamoyl)-6-chlorobenzene-1,3-dicarboxylic acid] |
| 0.5 to 2 | COc1ccc(-c2c(C)sc(N3C(=O)c4ccc(C(=O)N[C@@H](Cc5ccccc5)C(=O)O)cc4C3=O)c2C#N)cc1 [Compound 137, (2S)-2-({2-[3-Cyano-4-(4-methoxyphenyl)-5-methyl-thiophen-2-yl]-1,3-dioxo-2,3-dihydro-1H-isoindole-5-carbonyl}-amino)-3-phenylpropanoic acid] |
| 0.5 to 2 | O=C(O)c1ccc(C(=O)O)c(C(=O)Nc2ncc([N+](=O)[O-])s2)c1 [Example 39, 2-[(5-nitro-1,3-thiazol-2-yl)carbamoyl]benzene-1,4-dicarboxylic acid] |
| < 0.5 | O=C(O)c1cc(C(=O)Nc2cc(-c3ccc(F)c(F)c3)ccc2C(=O)O)c(C(=O)O)cc1O [Example 28, 2-({4-carboxy-3′,4′-difluoro-[1,1′-biphenyl]-3-yl}carbamoyl)-5-hydroxybenzene-1,4-dicarboxylic acid] |
| 0.5 to 2 | O=C(O)c1ccc(NC(=O)c2cccc(-c3ccccc3)c2)c(C(=O)O)c1 [Example 17, 4-{[1,1′-biphenyl]-3-amido}benzene-1,3-dicarboxylic acid] |
| < 0.5 | CS(C)(=O)=NC(=O)c1ccc(C(=O)Nc2cc(-c3ccc(F)c(F)c3)ccc2C(=O)O)c(C(=O)O)c1 [Example 41, 3-(2-carboxy-4-{[methyl(methylidene)oxo-λ^6-sulfanyl]carbamoyl}benzamido)-3′,4′-difluoro-[1,1′-biphenyl]-4-carboxylic acid] |
| 2 to 5 | NC(COC(=O)c1ccc(-c2ccccc2)cc1N1C(=O)c2ccc(-c3c[nH]nn3)cc2C1=O)C(=O)O (stereo in doubt) [Compound 73, 3-[1,3-Dioxo-5-(1H-[1,2,3]triazol-4-yl)-1,3-dihydroisoindol-2-yl]biphenyl-4-carboxylic acid (2S)-2-amino-2-carboxy-ethyl ester] |
| < 0.5 | COc1cc2c(cc1C(=O)O)C(=O)N(c1cc(-c3ccc(F)c(F)c3)ccc1C(=O)O)C2=O [compound 170, 2-(4-carboxy-3′,4′-difluoro[1,1′-biphenyl]-3-yl)-6-methoxy-1,3-dioxo-2,3-dihydro-1H-isoindole-5-carboxylic acid] |
| 2 to 5 | O=C(O)c1ccc(-c2ccc(F)cc2)cc1N1C(=O)c2ccc(-c3c[nH]nn3)cc2C1=O [Example 57] |
| < 0.5 | O=C(O)c1cc(C(=O)O)c(C(=O)Nc2cc(-c3ccc(Cl)cc3Cl)ccc2C(=O)O)cc1O [Example 43, 4-({4-carboxy-2′,4′-dichloro-[1,1′-biphenyl]-3-yl}carbamoyl)-6-hydroxybenzene-1,3-dicarboxylic acid] |
| < 0.5 | O=C(O)c1cc2c(cc1Br)C(=O)N(c1cc(-c3ccc(F)c(F)c3)ccc1C(=O)O)C2=O [compound 169, 6-bromo-2-(4-carboxy-3′,4′-difluoro[1,1′-biphenyl]-3-yl)-1,3-dioxo-2,3-dihydro-1H-isoindole-5-carboxylic acid] |
| 0.5 to 2 | O=C(O)c1ccc2c(c1)C(=O)N(c1cc(-c3ccccc3)ccc1-c1nnn[nH]1)C2=O [Example 43] |
| 0.5 to 2 | COC(=O)c1cc(-c2ccccc2)c(OC)cc1N1C(=O)c2ccc(C(=O)O)cc2C1=O [Example 42] |
| < 0.5 | CC(CN(C)C)OC(=O)c1ccc(-c2ccc(Cl)cc2Cl)cc1NC(=O)c1cc(C(=O)O)c(O)cc1C(=O)O (centres unmarked) [Example 73, 2-{[2′,4′-dichloro-4-({[1-(dimethylamino)propan-2-yl]oxy}carbonyl)-[1,1′-biphenyl]-3-yl]carbamoyl}-5-hydroxybenzene-1,4-dicarboxylic acid] |
| 0.5 to 2 | CS(C)(=O)=NC(=O)c1ccc(C(=O)O)c(C(=O)Nc2cc(-c3ccc(F)c(F)c3)ccc2C(=O)O)c1 [Example 36, 3-(2-carboxy-5-{[methyl(methylidene)oxo-λ^6-sulfanyl]carbamoyl}benzamido)-3′,4′-difluoro-[1,1′-biphenyl]-4-carboxylic acid] |
| < 0.5 | COc1ccc(-c2c(C)sc(N3C(=O)c4ccc(C(=O)O)cc4C3=O)c2C#N)cc1 [Example 6] |

From patent publication US20230047816A1 (priority 2018, published 2023)
